Test results from the NIST ThermoML archive (doi:10.1016/j.jct.2016.10.021).
± gives the expanded uncertainty stated by the source.

Columns and labels:
[1] = for surface tension liquid-gas: Pendant drop shape; for viscosity / mass density: 101.33 kPa, Liquid; for viscosity: Concentric cylinders viscometry; for mass density: Vibrating tube method
[2] = wn = mass fraction of the nth substance listed; settings: 303.15 K; for surface tension liquid-gas: Pendant drop shape; for viscosity / mass density: 100 kPa, Liquid; for viscosity: Concentric cylinders viscometry; for mass density: Vibrating tube method

| Structure (SMILES) | surface tension liquid-gas ([1]; 293.15 K) [mN/m] | viscosity ([1]; 293.15 K) [mPa·s] | mass density ([1]; 293.15 K) [kg/m3] | surface tension liquid-gas ([1]; 303.15 K) [mN/m] | viscosity ([1]; 303.15 K) [mPa·s] | mass density ([1]; 303.15 K) [kg/m3] | surface tension liquid-gas ([1]; 313.15 K) [mN/m] | viscosity ([1]; 313.15 K) [mPa·s] | mass density ([1]; 313.15 K) [kg/m3] | surface tension liquid-gas ([1]; 323.15 K) [mN/m] | viscosity ([1]; 323.15 K) [mPa·s] | mass density ([1]; 323.15 K) [kg/m3] | surface tension liquid-gas ([1]; 333.15 K) [mN/m] | viscosity ([1]; 333.15 K) [mPa·s] | mass density ([1]; 333.15 K) [kg/m3] | surface tension liquid-gas ([1]; 343.15 K) [mN/m] | viscosity ([1]; 343.15 K) [mPa·s] | mass density ([1]; 343.15 K) [kg/m3] | surface tension liquid-gas ([1]; 353.15 K) [mN/m] | viscosity ([1]; 353.15 K) [mPa·s] | other results |
| --- | --- | --- | --- | --- | --- | --- | --- | --- | --- | --- | --- | --- | --- | --- | --- | --- | --- | --- | --- | --- | --- |
| C1CCC2=[NH+]CCCN2CC1.O=S(=O)([O-])C(F)(F)F | 30.39 ± 0.73 | 1113.1 ± 49 | 1361 ± 4.3 | 29.8 ± 0.73 | 524.23 ± 19 | 1352.7 ± 4.3 | 29.27 ± 0.72 | 276 ± 8.5 | 1344.5 ± 4.3 | 28.83 ± 0.72 | 158.89 ± 4.2 | 1336.7 ± 4.3 | 28.31 ± 0.72 | 98.25 ± 2.4 | 1329 ± 4.3 | 27.71 ± 0.71 | 64.4 ± 1.5 | 1321.2 ± 4.2 | 27.15 ± 0.71 | 44.29 ± 1 | mass density ([1]; 353.15 K): 1313.5 ± 4.2 kg/m3; viscosity ([1]; 363.15 K): 31.75 ± 0.72 mPa·s; mass density ([1]; 363.15 K): 1305.9 ± 4.2 kg/m3 |
| C1CCC2=[NH+]CCCN2CC1.O=S(=O)([O-])C(F)(F)F + O |  |  |  |  |  |  |  |  |  |  |  |  |  |  |  |  |  |  |  |  | surface tension liquid-gas ([2]; w2 = 0.001106): 29.8 ± 0.7 mN/m; surface tension liquid-gas ([2]; w2 = 0.002067): 29.74 ± 0.73 mN/m; surface tension liquid-gas ([2]; w2 = 0.003286): 29.66 ± 0.73 mN/m; surface tension liquid-gas ([2]; w2 = 0.004194): 29.6 ± 0.7 mN/m; surface tension liquid-gas ([2]; w2 = 0.005671): 29.51 ± 0.72 mN/m; viscosity ([2]; w2 = 0.001106): 524.23 ± 19 mPa·s; viscosity ([2]; w2 = 0.002067): 524.18 ± 19 mPa·s; viscosity ([2]; w2 = 0.003286): 524.11 ± 19 mPa·s; viscosity ([2]; w2 = 0.004194): 524.06 ± 19 mPa·s; viscosity ([2]; w2 = 0.005671): 523.99 ± 19 mPa·s; mass density ([2]; w2 = 0.001106): 1352.7 ± 4.3 kg/m3; mass density ([2]; w2 = 0.002067): 1352.2 ± 4.3 kg/m3; mass density ([2]; w2 = 0.003286): 1351.6 ± 4.3 kg/m3; mass density ([2]; w2 = 0.004194): 1351.1 ± 4.3 kg/m3; mass density ([2]; w2 = 0.005671): 1350.5 ± 4.3 kg/m3 |
| C1CCC2=NCCC[NH+]2CC1.CS(=O)(=O)[O-] [1,8-diazabicyclo[5.4.0]undec-7-enium methanesulfonate] | 41.84 ± 0.82 | 3310.1 ± 190 | 1226.6 ± 4.2 | 41.35 ± 0.81 | 1177 ± 53 | 1219.8 ± 4.2 | 40.49 ± 0.81 | 497.53 ± 18 | 1212.9 ± 4.2 | 39.58 ± 0.8 | 241.49 ± 7.2 | 1206.1 ± 4.2 | 38.79 ± 0.79 | 131.6 ± 3.3 | 1199.5 ± 4.2 | 38.23 ± 0.79 | 78.46 ± 1.8 | 1193 ± 4 | 37.54 ± 0.78 | 50.26 ± 1.1 | mass density ([1]; 353.15 K): 1186.5 ± 4.2 kg/m3; viscosity ([1]; 363.15 K): 34.12 ± 0.77 mPa·s; mass density ([1]; 363.15 K): 1180.2 ± 4.2 kg/m3 |
| C1CCC2=NCCC[NH+]2CC1.CS(=O)(=O)[O-] [1,8-diazabicyclo[5.4.0]undec-7-enium methanesulfonate] + O |  |  |  |  |  |  |  |  |  |  |  |  |  |  |  |  |  |  |  |  | surface tension liquid-gas ([2]; w2 = 0.001054): 41.35 ± 0.81 mN/m; surface tension liquid-gas ([2]; w2 = 0.001987): 41.43 ± 0.81 mN/m; surface tension liquid-gas ([2]; w2 = 0.003524): 41.56 ± 0.82 mN/m; surface tension liquid-gas ([2]; w2 = 0.004663): 41.69 ± 0.82 mN/m; surface tension liquid-gas ([2]; w2 = 0.005967): 41.78 ± 0.82 mN/m; viscosity ([2]; w2 = 0.001054): 1177 ± 54 mPa·s; viscosity ([2]; w2 = 0.001987): 1176.8 ± 54 mPa·s; viscosity ([2]; w2 = 0.003524): 1176.5 ± 54 mPa·s; viscosity ([2]; w2 = 0.004663): 1176.3 ± 54 mPa·s; viscosity ([2]; w2 = 0.005967): 1176.1 ± 54 mPa·s; mass density ([2]; w2 = 0.001054): 1219.8 ± 4.2 kg/m3; mass density ([2]; w2 = 0.001987): 1219.37 ± 4.2 kg/m3; mass density ([2]; w2 = 0.003524): 1218.75 ± 4.2 kg/m3; mass density ([2]; w2 = 0.004663): 1218.3 ± 4.2 kg/m3; mass density ([2]; w2 = 0.005967): 1217.81 ± 4.2 kg/m3 |
| C1CCC2=NCCC[NH+]2CC1.O=C([O-])C(F)(F)F [1,8-diazabicyclo[5.4.0]undec-7-enium trifluoroacetate] | 32.47 ± 0.75 | 1193.2 ± 54 | 1264.6 ± 4.2 | 31.98 ± 0.74 | 493.76 ± 18 | 1256.6 ± 4.2 | 31.52 ± 0.74 | 236.97 ± 7 | 1248.9 ± 4.2 | 31.05 ± 0.74 | 127.92 ± 3.2 | 1241.4 ± 4.2 | 30.65 ± 0.73 | 75.72 ± 1.7 | 1234 ± 4.2 | 30.15 ± 0.73 | 48.46 ± 1.1 | 1226.6 ± 4.2 | 29.74 ± 0.73 | 32.94 ± 0.74 | mass density ([1]; 353.15 K): 1219.2 ± 4.2 kg/m3; viscosity ([1]; 363.15 K): 23.43 ± 0.53 mPa·s; mass density ([1]; 363.15 K): 1211.9 ± 4.2 kg/m3 |
| C1CCC2=NCCC[NH+]2CC1.O=C([O-])C(F)(F)F [1,8-diazabicyclo[5.4.0]undec-7-enium trifluoroacetate] + O |  |  |  |  |  |  |  |  |  |  |  |  |  |  |  |  |  |  |  |  | surface tension liquid-gas ([2]; w2 = 0.001118): 31.98 ± 0.74 mN/m; surface tension liquid-gas ([2]; w2 = 0.002196): 32.01 ± 0.74 mN/m; surface tension liquid-gas ([2]; w2 = 0.003948): 32.06 ± 0.74 mN/m; surface tension liquid-gas ([2]; w2 = 0.005067): 32.09 ± 0.74 mN/m; surface tension liquid-gas ([2]; w2 = 0.006935): 32.14 ± 0.74 mN/m; viscosity ([2]; w2 = 0.001118): 493.76 ± 18 mPa·s; viscosity ([2]; w2 = 0.002196): 493.59 ± 18 mPa·s; viscosity ([2]; w2 = 0.003948): 493.33 ± 18 mPa·s; viscosity ([2]; w2 = 0.005067): 493.17 ± 18 mPa·s; viscosity ([2]; w2 = 0.006935): 492.85 ± 18 mPa·s; mass density ([2]; w2 = 0.001118): 1256.6 ± 4.2 kg/m3; mass density ([2]; w2 = 0.002196): 1256.2 ± 4.2 kg/m3; mass density ([2]; w2 = 0.003948): 1255.7 ± 4.2 kg/m3; mass density ([2]; w2 = 0.005067): 1255.2 ± 4.2 kg/m3; mass density ([2]; w2 = 0.006935): 1254.6 ± 4.2 kg/m3 |
| C1CCC2=[NH+]CCCN2CC1.CC(=O)[O-] [2,3,4,6,7,8,9,10-octahydropyrimido[1,2-a]azepinium acetate] | 36.88 ± 0.78 | 164.74 ± 4.4 | 1076 ± 4.1 | 35.94 ± 0.77 | 84.73 ± 2 | 1069.1 ± 4.1 | 34.6 ± 0.76 | 48.34 ± 1.1 | 1062.3 ± 4.1 | 33.47 ± 0.75 | 30.38 ± 0.69 | 1055.6 ± 4.1 | 32.38 ± 0.75 | 20.36 ± 0.46 | 1048.7 ± 4.1 | 31.46 ± 0.74 | 14.39 ± 0.33 | 1041.8 ± 4.1 | 30.63 ± 0.73 | 10.59 ± 0.24 | mass density ([1]; 353.15 K): 1034.9 ± 4.1 kg/m3; viscosity ([1]; 363.15 K): 8.052 ± 0.18 mPa·s; mass density ([1]; 363.15 K): 1028 ± 4 kg/m3 |
| C1CCC2=[NH+]CCCN2CC1.CC(=O)[O-] [2,3,4,6,7,8,9,10-octahydropyrimido[1,2-a]azepinium acetate] + O |  |  |  |  |  |  |  |  |  |  |  |  |  |  |  |  |  |  |  |  | surface tension liquid-gas ([2]; w2 = 0.001127): 35.94 ± 0.87 mN/m; surface tension liquid-gas ([2]; w2 = 0.002156): 35.99 ± 0.87 mN/m; surface tension liquid-gas ([2]; w2 = 0.003932): 36.09 ± 0.87 mN/m; surface tension liquid-gas ([2]; w2 = 0.005106): 36.15 ± 0.87 mN/m; surface tension liquid-gas ([2]; w2 = 0.006373): 36.23 ± 0.87 mN/m; viscosity ([2]; w2 = 0.001127): 84.73 ± 2.2 mPa·s; viscosity ([2]; w2 = 0.002156): 84.7 ± 2.2 mPa·s; viscosity ([2]; w2 = 0.003932): 84.66 ± 2.2 mPa·s; viscosity ([2]; w2 = 0.005106): 84.62 ± 2.2 mPa·s; viscosity ([2]; w2 = 0.006373): 84.59 ± 2.2 mPa·s; mass density ([2]; w2 = 0.001127): 1069.1 ± 4.5 kg/m3; mass density ([2]; w2 = 0.002156): 1068.4 ± 4.5 kg/m3; mass density ([2]; w2 = 0.003932): 1066.9 ± 4.5 kg/m3; mass density ([2]; w2 = 0.005106): 1065.9 ± 4.5 kg/m3; mass density ([2]; w2 = 0.006373): 1065 ± 4 kg/m3 |
